Data reported in patent US7919577B2, “Adrenocorticotropic hormone analogs and related methods” (Colorado Seminary, priority 2004, dated 2011).
No end group written: not given here.

Key:
[1] = target: T1, adrenal ACTH receptors such as MC-2R (explanted adrenal membrane) (Mus musculus, UniProt Q64326+Q9D159); test: in vitro Serum-free Adrenal Competitive Binding Assay (Example 3); conditions: cold peptide at 10 nM, 100 nM, 1000 nM; CPM; FIG. 3
T1 construct: the adrenal halves were macerated or otherwise dissociated using Dounce Homogenizer to form a membrane fraction; from tissue; host or cells: mouse adrenal glands (explanted, homogenised to a membrane fraction)
T1 sequence (Q64326 whole entry): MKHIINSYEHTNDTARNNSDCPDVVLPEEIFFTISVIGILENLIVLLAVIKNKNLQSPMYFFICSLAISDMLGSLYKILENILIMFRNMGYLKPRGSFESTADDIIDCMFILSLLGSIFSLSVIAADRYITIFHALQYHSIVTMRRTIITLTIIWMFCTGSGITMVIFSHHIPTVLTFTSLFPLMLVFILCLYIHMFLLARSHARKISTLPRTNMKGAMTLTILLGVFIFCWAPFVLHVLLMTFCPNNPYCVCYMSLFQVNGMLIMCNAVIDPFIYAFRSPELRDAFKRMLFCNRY
T1 sequence (Q9D159 whole entry): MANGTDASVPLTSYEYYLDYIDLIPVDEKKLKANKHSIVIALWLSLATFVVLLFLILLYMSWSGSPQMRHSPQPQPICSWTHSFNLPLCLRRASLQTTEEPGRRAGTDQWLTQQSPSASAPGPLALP
From the text: ACTH analog compounds that bind to adrenal membrane with a greater affinity than endogenous unmodified ACTH, and are able to displace unmodified ACTH can be identified using an in vitro Serum-free Adrenal Competitive Binding Assay (Example 3). […] A higher CPM level indicates the presence of greater amounts of the radiolabelled compound. […] Column 220 indicates the level of radio-labeled unmodified mACTH(1-24) detected after combining the explanted adrenal membrane with only the radio-labeled mACTH(1-24) for 2 hours (no competitive binding). Columns 230, 240, and 250 show the results of competitive binding assays for binding of non-radio-labeled (“cold”) mACTH(1-24) to displace the radio-labeled mACTH(1-24) from the explanted adrenal membrane (measured in column 220) by competitive binding to receptors such as MC-2R on the adrenal membrane. […]
ACTH analogs with the ability to bind adrenal receptors with a greater affinity than compounds with known adrenal binding activity (preferably ACTH) can also be identified by performing an in vitro Adrenal Competitive Binding Assay, whereby measurement of the reduction in the amount of the radiolabelled adrenal-binding compound (e.g., ACTH) is measured at various concentrations of non-radio-labeled ACTH analog test compound in a medium containing explanted adrenal membrane. […]

[2] = system: explanted mouse adrenal membrane (adrenal halves); test: in vitro Serum-free Adrenal Inhibition Assay (Example 4); assay type: cell-based; conditions: FIG. 4
Procedure: A series of separate in vitro Serum-Free Adrenal Corticosteroid Inhibition Assay were performed to identify ACTH analogs that inhibit ACTH-induced adrenal hormone production in vitro. The concentration of corticosterone was measured according to the procedure of Example 4 in a serum-free culture medium containing explanted adrenal membrane and unmodified ACTH, AT814 ACTH analog (SEQ ID NO:20), or a combination of ACTH and AT814 at 100 ng/mL each. […] Corticosterone levels were taken at 2.0 hours after the adrenal membrane was placed in the serum free M199 medium, and each corticosterone level in Table 5 is an average of five samples.
The in vitro Serum-free Adrenal Inhibition Assay was performed according the following method. First, adrenals were removed from mice, dissected free of fat, and cut in half. See Costa, J L, et al., “Mutational analysis of evolutionarily conserved ACTH residues,” Gen Comp Endocrinol. 136:12-16 (2004); and Weber, M M, et al., “Postnatal overexpression of insulin-like growth factor II in transgenic mice is associated with adrenocortical hyperplasia and enhanced steroidogenesis,” Endocrinology 140:1537-1543 (1999), incorporated herein by reference.
Second, each adrenal half was placed into an individual well of a 4-well dish, one dish per mouse. Adrenal halves were incubated at 5% CO2, 37° C., in 0.5 ml serum-free medium (M199; Invitrogen) for 30 minutes to equilibrate.
Third, medium was removed and replaced by 0.5 ml M199 containing ACTH, AT814, or both, at 100 ng/ml each; controls had no peptides added.
Fourth, after 2 hours of incubation, the medium was removed, pooled for all four halves from each mouse, and assayed by corticosterone using standard RIA methods. corticosterone was determined by competitive radioimmunoassay (^125I RIA kit; ICN, Costa Mesa, Calif.) according to the manufacturer's recommendations. One microliter of serum was used per assay sample. Samples were run in duplicates.

Substance: N-Ser^1-Tyr-Ser-Met-Glu^5-His-Phe-Arg-Trp-Gly^10-Lys-Pro-Val-Gly-Lys^15-Arg-Ala-Ala-Trp-Val^20-Lys-Val-Tyr-Pro-Ac (SYSMEHFRWGKPVGKRAAWVKVYP; not fully specified; printed as N-Ser1-Tyr-Ser-Met-Glu5-His-Phe-Arg-Trp-Gly10-Lys-Pro-Val-Gly-Lys15-Arg-Ala-Ala-Trp-Val20-Lys-Val-Tyr-Pro-Ac) [AT814]
- displacement of radio-labeled mACTH(1-24) from explanted adrenal membrane [1]: displacement of the radio-labeled mACTH(1-24)
- corticosterone induction by analog alone ([2]; AT814 alone in M199 serum-free medium): only a negligible amount of corticosterone induction
- reduction of corticosterone induction compared to unmodified ACTH alone ([2]; equal amounts of AT814 and unmodified ACTH): about 65%
